Consider 16 compounds from patent publication US9493485B2, “Spirocyclic dihydro-thiazine and dihydro-oxazine BACE inhibitors, and compositions and uses thereof” (Imago Pharmaceuticals, Inc., priority 2012, dated 2016).

SMILES strings stand for the structures. Where two headings read alike, the source gives them in different places.

One test relates to Aβ x-40 levels. The experiment in a line: In vivo reduction of Aβ x-40 levels in Sprague Dawley rat, oral dosing. Particulars: for decrease of the mean Aβ x-40 compared to vehicle control in brain samples / effect on brain Aβ x-40 levels: rat cortical brain, 3 hours post dosing. The procedure:
Ability of a compound as described herein to reduce the level of Aβ peptide in vivo was determined in a Sprague Dawley rat model. Compounds were dosed orally in female Sprague Dawley rats, along with a vehicle control, five rats per dose group. Compounds were formulated in 5% DMSO/0.5% methylcellulose, and dosed at various amounts (10 mL/kg), and 10 mL/kg vehicle by oral gavage. CSF was collected from the cistern magna under isoflurane anesthesia, frozen on dry ice and stored at −80° C. until assessed for Aβ peptide levels. […] Cortical brain samples were homogenized in 5 M guanidine and Aβ peptide was quantitated in these brain samples as well as plasma samples in an ELISA assay, where Aβ x-40 ELISA detects Aβ peptide N-terminal sequences containing the transmembrane region and ending at amino acid 40 at the C-terminus. The ELISA was performed as described in Johnson-Wood et al., PNAS February 1997, 94: 1550-1555, using capture antibody 266 (Aβ 16-23 specific) and biotinylated 2G3 (Aβ 40 specific) as reporter antibody. Results of cortical and plasma Aβ x-40 levels were statistically analyzed separately using a one-way Anova with a Dunnets post test analysis at the 0.05 significant level.

Test [1] deals with BACE1 inhibition in HEKp293 cells transfected with APP751 gene (SWE293). Put plainly: SWE293 cellular assay: reduction of Aβ peptide production, ELISA. Format: cell-based. The following applies: Homo sapiens, read-out: SWE293 ED50. Summed up:
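SWE293 cells (HEK293 carrying APP751), plated overnight at 37 °C, received 1:3 serially diluted compound for two successive 2 h exposures with washes between. Medium Aβ was captured on 266-antibody plates, detected with 3D6 antibody and streptavidin-AP fluorescent substrate, and quantified against an Aβ-40 standard curve.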

A further test has as its target Cathepsin D (Homo sapiens (Human), UniProt P07339). The experiment in a line: Cathepsin D FP assay. The class given is biochemical. Particulars: pH 4.5, read-out: CatD FP IC50. Summed up:
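AlphaScreen (PBS, 0.01% Tween-20, 0.05% BSA, pH 7.0): compound preincubated 15 min with BACE1 ([…]), then biotinylated binding-site probe 1 h, beads 2 h; IC50 from signal. FP (100 mM sodium acetate, pH 4.5, 0.001% Tween-20): added BACE1 (0.3 nM) or cathepsin D (1.8 nM), 30 min RT.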

Test [2] deals with T1, BACE1 (Homo sapiens (Human), UniProt P56817). The experiment in a line: BACE1 FP assay. Format: biochemical. The following applies: pH 4.5.
Test [3] concerns the target T1, BACE1. Put plainly: BACE1 AlphaScreen assay (displacement of biotinylated BACE1 binding site probe). Particulars: read-out: BACE1 AS IC50.
[4] abbreviates: dose at which Aβ level is reduced by 50%, HEKp293 SWE293 cells.

Chain of Cathepsin D (P07339 65-412, species assumed): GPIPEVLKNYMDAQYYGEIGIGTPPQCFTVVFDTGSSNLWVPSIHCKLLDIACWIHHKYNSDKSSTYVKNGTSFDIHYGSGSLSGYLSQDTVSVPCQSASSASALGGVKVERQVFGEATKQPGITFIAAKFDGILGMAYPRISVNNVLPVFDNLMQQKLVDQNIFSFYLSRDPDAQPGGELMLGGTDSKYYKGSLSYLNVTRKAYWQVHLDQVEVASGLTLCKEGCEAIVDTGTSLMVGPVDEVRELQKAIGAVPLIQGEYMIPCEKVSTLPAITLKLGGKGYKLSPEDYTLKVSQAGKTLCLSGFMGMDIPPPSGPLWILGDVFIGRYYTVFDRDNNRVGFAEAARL
T1 sequence (P56817 46-501): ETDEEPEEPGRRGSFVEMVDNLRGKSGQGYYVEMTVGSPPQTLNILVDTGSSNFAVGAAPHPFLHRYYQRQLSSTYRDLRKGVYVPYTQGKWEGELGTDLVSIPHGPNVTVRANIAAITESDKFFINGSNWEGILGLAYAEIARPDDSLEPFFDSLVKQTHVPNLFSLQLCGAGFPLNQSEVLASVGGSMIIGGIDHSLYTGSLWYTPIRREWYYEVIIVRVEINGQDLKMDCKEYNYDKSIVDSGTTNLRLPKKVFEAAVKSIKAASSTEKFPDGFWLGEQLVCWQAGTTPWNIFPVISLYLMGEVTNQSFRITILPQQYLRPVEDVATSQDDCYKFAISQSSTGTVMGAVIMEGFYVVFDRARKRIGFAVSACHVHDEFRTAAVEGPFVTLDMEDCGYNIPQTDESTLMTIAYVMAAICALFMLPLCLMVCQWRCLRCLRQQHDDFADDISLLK

As to `C[C@@]1(c2cc(NC(=O)c3ccc(F)cn3)ccc2F)CC2(CCOCC2)SC(N)=N1` [Compound 148], the “decrease of the mean Aβ x-40 compared to vehicle control in brain samples” value in the test with Aβ x-40 levels (10 mg/kg oral) amounted to 23%; in the test on Aβ x-40 levels (30 mg/kg oral), 31%; in the test with Aβ x-40 levels (60 mg/kg oral), 31%; with Aβ x-40 levels (100 mg/kg oral) it was 40%.
Take `C[C@@]1(c2cc(NC(=O)c3ccc(Cl)cn3)ccc2F)CC2(CC2)OC(N)=N1` [Compound 154]: the “decrease of the mean Aβ x-40 compared to vehicle control in brain samples” value in the test with Aβ x-40 levels (100 mg/kg oral) was 25%.
On to `CC#Cc1cncc(-c2csc([C@]3(C)CC4(CCOCC4)OC(N)=N3)c2)c1` [Compound 104], for which the “effect on brain Aβ x-40 levels” value in the test on Aβ x-40 levels (50 and 200 mg/kg oral) is recorded as “no significant effect”.
For the compound `C[C@@]1(c2cc(NC(=O)c3ccc(Cl)cn3)ccc2F)CC2(CCOCC2)SC(N)=N1` [Compound 151], in the test on Aβ x-40 levels (30 mg/kg oral, rat, various timepoints, CSF), the “duration of reduction in Aβ x-40 levels in CSF (relative to 12 hours in brain)” value was “longer”. Also, the “duration of reduction in Aβ x-40 levels in brain samples” value with Aβ x-40 levels (30 mg/kg oral, rat, various timepoints, brain) is reported as “up to 12 hours”.
For `C[C@@]1(c2cc(NC(=O)c3ccc(F)cn3)ccc2F)CC2(COC2)SC(N)=N1` [Compound 9-146, (S)—N-(3-(6-amino-8-methyl-2-oxa-5-thia-7-azaspiro[3.5]non-6-en-8-yl)-4-fluorophenyl)-5-fluoropicolinamide], the IC50 was 22 nM in test [1] (setting [4]), more than 30000 nM at Cathepsin D, 119 nM against BACE1 [2] and 9.8 nM on BACE1 [3].
Taken in the same sequence, the figures for `CC1(c2cc(NC(=O)c3ccc(F)cn3)ccc2F)CC2(CCOCC2)SC(N)=N1` (centres unmarked) [Compound 9-147, N-(3-(2-amino-4-methyl-9-oxa-1-thia-3-azaspiro[5.5]undec-2-en-4-yl)-4-fluorophenyl)-5-fluoropicolinamide] were less than 4 nM, 15600 nM, 29 nM and 8 nM.
`C[C@@]1(c2cc(NC(=O)c3ccc(Cl)cn3)ccc2F)CC2(CCOCC2)OC(N)=N1` [Compound 9-122, (S)—N-(3-(2-amino-4-methyl-1,9-dioxa-3-azaspiro[5.5]undec-2-en-4-yl)-4-fluorophenyl)-5-chloropicolinamide]: the IC50 in test [1] is 4 nM; at Cathepsin D, more than 30000 nM; against BACE1 [2] it was 59 nM; on BACE1 [3], 12 nM.
Turning to `C[C@@]1(c2cc(NC(=O)c3ccc(F)cn3)ccc2F)CC2(CCOCC2)SC(N)=N1` [Compound 9-148, (S)—N-(3-(2-amino-4-methyl-9-oxa-1-thia-3-azaspiro[5.5]undec-2-en-4-yl)-4-fluorophenyl)-5-fluoropicolinamide], the IC50 in test [1] (setting [4]) is 1.4 nM; on Cathepsin D, more than 30000 nM; against BACE1 [2] it was 29 nM; at BACE1 [3] it was 6.8 nM.
On to `C[C@]1(c2cc(NC(=O)c3ccc(F)cn3)ccc2F)N=C(N)OC2(CCOCC2)C1(F)F` [Compound 9-157, (R)—N-(3-(2-amino-5,5-difluoro-4-methyl-1,9-dioxa-3-azaspiro[5.5]undec-2-en-4-yl)-4-fluorophenyl)-5-fluoropicolinamide], for which the IC50 in test [1] (setting [4]) was 166 nM; on Cathepsin D, more than 30000 nM; against BACE1 [2] it was 300 nM; on BACE1 [3], 45 nM.
On to `Cc1nc(C(=O)Nc2ccc(F)c(C3(C)N=C(N)OC4(CCC4)C3(F)F)c2)co1` (centres unmarked) [Compound 9-165, N-(3-(6-amino-9,9-difluoro-8-methyl-5-oxa-7-azaspiro[3.5]non-6-en-8-yl)-4-fluorophenyl)-2-methyloxazole-4-carboxamide], for which the IC50 in test [1] (setting [4]) is 176 nM; on Cathepsin D, more than 30000 nM; on BACE1 [2] it was 496 nM; at BACE1 [3] it was 34 nM.
On to `CC1(c2cc(NC(=O)c3ccc(F)cn3)ccc2F)CC2(CCC2)OC(N)=N1` (centres unmarked) [Compound 125], for which the “effect on brain Aβ x-40 levels” value with Aβ x-40 levels (30 or 100 mg/kg oral) is “no significant effect”.
With `C[C@@]1(c2cc(NC(=O)c3ncc(Cl)cc3F)ccc2F)CC2(CCC(F)(F)CC2)OC(N)=N1` [Compound 9-133, (S)—N-(3-(2-amino-9,9-difluoro-4-methyl-1-oxa-3-azaspiro[5.5]undec-2-en-4-yl)-4-fluorophenyl)-5-chloro-3-fluoropicolinamide], the IC50 in test [1] (setting [4]) is 16 nM; on Cathepsin D it was more than 30000 nM; on BACE1 [2], 16 nM; on BACE1 [3], 9 nM.
For the compound `CCCn1cc(-c2ccc(F)c(C3(C)CC4(CCOCC4)OC(N)=N3)c2)cn1` (centres unmarked) [Compound 8-107, 4-(2-fluoro-5-(1-propyl-1H-pyrazol-4-yl)phenyl)-4-methyl-1,9-dioxa-3-azaspiro[5.5]undec-2-en-2-amine], the IC50 was 1720 nM in test [1] (setting [4]), 20800 nM on Cathepsin D, 34100 nM against BACE1 [2] and 1680 nM at BACE1 [3].
For `CC#Cc1cncc(-c2csc([C@@]3(C)CC4(CCOCC4)OC(N)=N3)c2)c1` [Compound 8-105, (R)-4-methyl-4-(4-(5-(prop-1-ynyl)pyridin-3-yl)thiophen-2-yl)-1,9-dioxa-3-azaspiro[5.5]undec-2-en-2-amine], the IC50 in test [1] amounted to 7470 nM; at Cathepsin D, 5250 nM; against BACE1 [2] it was 84900 nM; on BACE1 [3], 1330 nM.
Regarding `C[C@@]1(c2cc(NC(=O)c3ccc(F)cn3)ccc2F)CC2(CCC2)SC(N)=N1` [Compound 9-144, (S)—N-(3-(6-amino-8-methyl-5-thia-7-azaspiro[3.5]non-6-en-8-yl)-4-fluorophenyl)-5-fluoropicolinamide], the IC50 in test [1] (setting [4]) was 9 nM; at Cathepsin D, more than 30000 nM; on BACE1 [2], 27 nM; at BACE1 [3], 8 nM.
For `COc1cnc(C(=O)Nc2ccc(F)c([C@]3(C)CC4(CCC4)OC(N)=N3)c2)cn1` [Compound 9-135, (S)—N-(3-(6-amino-8-methyl-5-oxa-7-azaspiro[3.5]non-6-en-8-yl)-4-fluorophenyl)-5-methoxypyrazine-2-carboxamide], in that order: 27 nM, more than 30000 nM, 281 nM and 10.5 nM.
